Test results from patent publication US9062074B2, “(9E)-15-(2-pyrrolidin-1-yl-ethoxy)-7,12,25-trioxa-19,21,24-triaza-tetracyclo[18.3.1.1(2.5).1(14,18)]hexacosa-1(24),2,4,9,14,16,18(26),20,22-nonaene citrate salt” (CTI BioPharma Corp., priority 2009, dated 2015).

Test: Gravimetric Vapour Sorption (GVS)
Assay type: physicochemical
Description: Sorption isotherms were obtained using a SMS DVS Intrinsic moisture sorption analyser, controlled by SMS Analysis Suite software. The sample temperature was maintained at 25° C. by the instrument controls. The humidity was controlled by mixing streams of dry and wet nitrogen, with a total flow rate of 200 ml.min^−1. The relative humidity was measured by a calibrated Rotronic probe (dynamic range of 1.0-100% RH), located near the sample. The weight change, (mass relaxation) of the sample as a function of % RH was constantly monitored by the microbalance (accuracy ±0.005 mg). Typically 5-20 mg of sample was placed in a tared mesh stainless steel basket under ambient conditions. The sample was loaded and unloaded at 40% RH and 25° C. (typical room conditions). A moisture sorption isotherm was performed as outlined below (2 scans giving 1 complete cycle). The standard isotherm was performed at 25° C. at 10% RH intervals over a 0.5-90% RH range.
The hygroscopicity of the citrate was investigated by carrying out a gravimetric vapour sorption experiment on Batch 4. A sample of approximately 20 mg was held at 25° C. whilst the humidity of its environment was changed through two complete cycles. […] The sample takes longer to reach equilibrium in the early stages of the experiment. This may be due to displacement of residual solvent.

Question: Which “Gravimetric Vapour Sorption Max weight change” value does the source give for `C1=C2COC/C=C/COCc3cc(ccc3OCCN3CCCC3)Nc3nccc(n3)C(=C1)O2` [Batch 4] here?
Answer: The value was under 1%.

Question: And the “Sorp Mass Change” value (Cycle 1 adsorption, Target RH 40.0%, 25° C.)?
Answer: Its value is −0.1186%.

Question: And the “Sorp Mass Change” value (Cycle 1 adsorption, Target RH 50.0%, 25° C.)?
Answer: The value was −0.0817%.

Question: What about the “Sorp Mass Change” value (Cycle 1 adsorption, Target RH 60.0%, 25° C.) of the same compound?
Answer: The value was 0.0329%.

Question: What about the “Sorp Mass Change” value (Cycle 1 adsorption, Target RH 70.0%, 25° C.) of the same compound?
Answer: Its value is 0.1086%.

Question: And the “Sorp Mass Change” value (Cycle 1 adsorption, Target RH 80.0%, 25° C.)?
Answer: The value was 0.2342%.

Question: And the “Sorp Mass Change” value (Cycle 1 adsorption, Target RH 90.0%, 25° C.)?
Answer: The value was 0.5631%.

Question: And the “Sorp Mass Change” value (Cycle 1 desorption, Target RH 0.0%, 25° C.)?
Answer: The value was −0.2816%.

Question: And the “Sorp Mass Change” value (Cycle 1 desorption, Target RH 10.0%, 25° C.)?
Answer: The value was −0.2093%.

Question: What about the “Sorp Mass Change” value (Cycle 1 desorption, Target RH 20.0%, 25° C.) of the same compound?
Answer: Its value is −0.1545%.

Question: What about the “Sorp Mass Change” value (Cycle 1 desorption, Target RH 30.0%, 25° C.) of the same compound?
Answer: The value was −0.1076%.

Question: What about the “Sorp Mass Change” value (Cycle 1 desorption, Target RH 40.0%, 25° C.) of the same compound?
Answer: Its value is −0.0548%.

Question: What about the “Sorp Mass Change” value (Cycle 1 desorption, Target RH 50.0%, 25° C.) of the same compound?
Answer: Its value is 0.0100%.

Question: What about the “Sorp Mass Change” value (Cycle 1 desorption, Target RH 60.0%, 25° C.) of the same compound?
Answer: Its value is 0.0743%.

Question: What about the “Sorp Mass Change” value (Cycle 1 desorption, Target RH 70.0%, 25° C.) of the same compound?
Answer: Its value is 0.1610%.

Question: What about the “Sorp Mass Change” value (Cycle 1 desorption, Target RH 80.0%, 25° C.) of the same compound?
Answer: The value was 0.2905%.

Question: What about the “Sorp Mass Change” value (Cycle 1 desorption, Target RH 90.0%, 25° C.) of the same compound?
Answer: The value was 0.5631%.

Question: What about the “Sorp Mass Change” value (Cycle 1 readsorption, Target RH 0.0%, 25° C.) of the same compound?
Answer: The value was −0.2816%.

Question: And the “Sorp Mass Change” value (Cycle 1 readsorption, Target RH 10.0%, 25° C.)?
Answer: The value was −0.2138%.

Question: What about the “Sorp Mass Change” value (Cycle 1 readsorption, Target RH 20.0%, 25° C.) of the same compound?
Answer: The value was −0.1620%.

Question: What about the “Sorp Mass Change” value (Cycle 1 readsorption, Target RH 30.0%, 25° C.) of the same compound?
Answer: The value was −0.1146%.

Question: What about the “Sorp Mass Change” value (Cycle 1 readsorption, Target RH 40.0%, 25° C.) of the same compound?
Answer: The value was −0.0643%.

Question: What about the “Sorp Mass Change” value (Cycle 2 desorption (first segment, RH 40 to 90), Target RH 40.0%, 25° C.) of the same compound?
Answer: Its value is −0.0643%.

Question: And the “Sorp Mass Change” value (Cycle 2 desorption (first segment, RH 40 to 90), Target RH 50.0%, 25° C.)?
Answer: The value was −0.0100%.

Question: What about the “Sorp Mass Change” value (Cycle 2 desorption (first segment, RH 40 to 90), Target RH 60.0%, 25° C.) of the same compound?
Answer: The value was 0.0513%.

Question: And the “Sorp Mass Change” value (Cycle 2 desorption (first segment, RH 40 to 90), Target RH 70.0%, 25° C.)?
Answer: Its value is 0.1281%.

Question: And the “Sorp Mass Change” value (Cycle 2 desorption (first segment, RH 40 to 90), Target RH 80.0%, 25° C.)?
Answer: Its value is 0.2567%.

Question: And the “Sorp Mass Change” value (Cycle 2 desorption (first segment, RH 40 to 90), Target RH 90.0%, 25° C.)?
Answer: The value was 0.5397%.

Question: What about the “Sorp Mass Change” value (Cycle 2 desorption (second segment, RH 90 to 0), Target RH 0.0%, 25° C.) of the same compound?
Answer: The value was −0.2836%.

Question: And the “Sorp Mass Change” value (Cycle 2 desorption (second segment, RH 90 to 0), Target RH 10.0%, 25° C.)?
Answer: The value was −0.2093%.

Question: What about the “Sorp Mass Change” value (Cycle 2 desorption (second segment, RH 90 to 0), Target RH 20.0%, 25° C.) of the same compound?
Answer: Its value is −0.1565%.

Question: What about the “Sorp Mass Change” value (Cycle 2 desorption (second segment, RH 90 to 0), Target RH 30.0%, 25° C.) of the same compound?
Answer: The value was −0.1032%.

Question: What about the “Sorp Mass Change” value (Cycle 2 desorption (second segment, RH 90 to 0), Target RH 40.0%, 25° C.) of the same compound?
Answer: The value was −0.0528%.

Question: And the “Sorp Mass Change” value (Cycle 2 desorption (second segment, RH 90 to 0), Target RH 50.0%, 25° C.)?
Answer: Its value is 0.0045%.

Question: And the “Sorp Mass Change” value (Cycle 2 desorption (second segment, RH 90 to 0), Target RH 60.0%, 25° C.)?
Answer: Its value is 0.0738%.

Question: What about the “Sorp Mass Change” value (Cycle 2 desorption (second segment, RH 90 to 0), Target RH 70.0%, 25° C.) of the same compound?
Answer: The value was 0.1535%.

Question: What about the “Sorp Mass Change” value (Cycle 2 desorption (second segment, RH 90 to 0), Target RH 80.0%, 25° C.) of the same compound?
Answer: The value was 0.2771%.

Question: And the “Sorp Mass Change” value (Cycle 2 desorption (second segment, RH 90 to 0), Target RH 90.0%, 25° C.)?
Answer: Its value is 0.5397%.

Question: What about the “Sorp Mass Change” value (Cycle 2 readsorption, Target RH 0.0%, 25° C.) of the same compound?
Answer: The value was −0.2863%.

Question: And the “Sorp Mass Change” value (Cycle 2 readsorption, Target RH 10.0%, 25° C.)?
Answer: Its value is −0.2168%.

Question: What about the “Sorp Mass Change” value (Cycle 2 readsorption, Target RH 20.0%, 25° C.) of the same compound?
Answer: Its value is −0.1630%.

Question: What about the “Sorp Mass Change” value (Cycle 2 readsorption, Target RH 30.0%, 25° C.) of the same compound?
Answer: Its value is −0.1116%.

Question: What about the “Sorp Mass Change” value (Cycle 2 readsorption, Target RH 40.0%, 25° C.) of the same compound?
Answer: Its value is −0.0653%.

Question: What about the “water taken up (isotherm plot)” value (between 40% RH and 90% RH, 25° C.) of the same compound?
Answer: The value was under 0.6%.

Question: What about the “phase change after GVS experiment (XRPD)” value (sample retrieved at end of GVS) of the same compound?
Answer: The value was “no overall phase change”.
